Assay [1] has as its system Hsp90A sequence from the HSP90 promoter. The experiment in a line: FRET quadruplex stabilisation assay, Hsp90A. The format is binding. Conditions: compound at 1 μM, 60 mM potassium cacodylate buffer pH 7.4. An excerpt:
(§1) The ability of the naphthalene diimide compounds to stabilize quadruplex DNA sequences was investigated using a fluorescence resonance energy transfer (FRET) assay modified to be used as a high-throughput screen in a 96-well format. Several quadruplex sequences were studied (including the human telomeric G-quadruplex DNA sequence 5′-FAM-d(GGG[TTAGGG]3)-TAMRA-3′ and the duplex sequence 5′-FAM-d[…]-HEG-[…]-TAMRA-3′ (HEG linker: [(—CH2—CH2—O—)6.
(§2) The labelled oligonucleotides have attached to them the donor fluorophore FAM: 6-carboxyfluorescein and the acceptor fluorophore TAMRA: 6-carboxytetramethylrhodamine. The FRET probe sequences were diluted from stock to the correct concentration (400 nM) in a 60 mM potassium cacodylate buffer (pH 7.4) and then annealed by heating to 85° C. for 10 min, followed by cooling to room temperature in the heating block. The compound was stored as a 10 mM stock solution in DMSO; final solutions (at 2× concentration) were prepared using 10 mM HCl in the initial 1:10 dilution, after which 60 mM potassium cacodylate buffer (pH 7.4) was used in all subsequent steps. The maximum HCl concentration in the reaction volume (at a ligand concentration of 20 μM) is thus 200 μM, well within the range of the buffer used. Relevant controls were also performed to check for interference with the assay. 96-Well plates (MJ Research, Waltham, Mass.) were prepared by aliquoting 50 μl of the annealed DNA into each well, followed by 50 μl of the compound solutions. Measurements were made on a DNA Engine Opticon (MJ Research) with excitation at 450-495 nm and detection at 515-545 nm. Fluorescence readings were taken at intervals of 0.5° C. in the range 30-100° C., with a constant temperature being maintained for 30 s prior to each reading to ensure a stable value. Final analysis of the data was carried out using a script written in the program Origin 7.0 (OriginLab Corp., Northampton, Mass.). The advanced curve-fitting function in Origin 7.0 was used for calculation of ΔTm values. All determinations were performed in triplicate or better. Esds in ΔTm are ±0.1° C.

For assay [2], the system named is Hsp90B sequence from the HSP90 promoter. The experiment in a line: FRET quadruplex stabilisation assay, Hsp90B. The format is binding. Conditions: compound at 1 μM, 60 mM potassium cacodylate buffer pH 7.4.
Description: as §1, §2

For assay [3], the system named is ALT (Alternative Lengthening of Telomeres) cell line. The experiment in a line: SRB growth inhibition, ALT. It counts as cell-based, human. Conditions: 96 hr, SRB assay; read-out: short-term 96 hr IC50 ALT. The procedure:
(§3) Human cancer cell lines and the somatic human cell line WI-38 (lung fibroblast) were purchased from the American Type Culture Collection. Cell lines were maintained in appropriate medium supplemented with 10% foetal bovine serum (Invitrogen, UK), 2 mM L-glutamine (Invitrogen, Netherlands), and other components as specified by the suppliers. Cell lines were maintained at 37° C., 5% CO2 and routinely passaged. Drugs were dissolved in DMSO and filtered through 0.22 μm pore-size filter units before addition to cell line appropriate media. Cellular growth inhibition was measured using the sulforhodamine B (SRB) assay in 96 well plates. Fifty percent inhibitory concentrations (IC50) were determined by taking the mean absorbance at 540 nm for each drug concentration expressed as a percentage of the absorbance of untreated control wells.
For orientation: In SRB staining, fixed cells bind dye roughly in proportion to their protein.

In assay [4] the test system is Mia-PaCa2 (pancreatic cancer) cells. Briefly: SRB growth inhibition, MiaPaCa2. Conditions: 96 hr, SRB assay; read-out: short-term 96 hr IC50 MiaPaCa2. It counts as cell-based, human. The procedure:
as §3

Assay [5] deals with human telomeric (F21T) G-quadruplex DNA. Briefly: FRET quadruplex stabilisation assay, F21T. It counts as binding. Conditions: compound at 1 μM, 60 mM potassium cacodylate buffer pH 7.4.
Description: as §1, §2

Assay [6] relates to Panc1 (pancreatic cancer) cells. Briefly: SRB growth inhibition, Panc1. The format is cell-based, human. Conditions: 96 hr, SRB assay; read-out: short-term 96 hr IC50 Panc1. The protocol:
as §3

In assay [7] the test system is Tloop (representing duplex DNA). Briefly: FRET assay, Tloop duplex DNA. The format is binding. Conditions: compound at 1 μM, 60 mM potassium cacodylate buffer pH 7.4.
Description: as §1, §2

Assay [8] has as its system Bcl-2 sequence from the promoter region of the bcl-2 gene. Briefly: FRET quadruplex stabilisation assay, Bcl-2. The format is binding. Conditions: compound at 1 μM, 60 mM potassium cacodylate buffer pH 7.4.
Description: as §1, §2

Assay [9] relates to Kras21 sequence from the promoter region of the kras gene. Briefly: FRET quadruplex stabilisation assay, Kras21. It counts as binding. Conditions: compound at 1 μM, 60 mM potassium cacodylate buffer pH 7.4.
Description: as §1, §2

For another assay, the system named is MCF7 (breast) cells. Briefly: SRB growth inhibition, MCF7. The format is cell-based, human. Conditions: 96 hr, SRB assay; read-out: short-term 96 hr IC50 MCF7. The procedure: as §3
Assay [10] has as its system Kras32 sequence from the promoter region of the kras gene. Briefly: FRET quadruplex stabilisation assay, Kras32. The format is binding. Conditions: compound at 1 μM, 60 mM potassium cacodylate buffer pH 7.4.
Description: as §1, §2

Another assay relates to A549 (lung cancer) cells. The experiment in a line: SRB growth inhibition, A549. It counts as cell-based, human. Conditions: 96 hr, SRB assay; read-out: short-term 96 hr IC50 A549. The protocol: as §3
Assay [11] deals with WI38 (lung fibroblast) cells. The experiment in a line: SRB growth inhibition, WI38. The format is cell-based, human. Conditions: 96 hr, SRB assay; read-out: short-term 96 hr IC50 WI38. The protocol:
as §3

In the case of `O=C1c2ccc3c4c(c(NCCN5CCCCC5)cc(c24)C(=O)N1CCCN1CCOCC1)C(=O)N(CCCN1CCOCC1)C3=O` [Compound 4f, 2,7-bis(3-morpholinopropyl)-4-((2-(piperidin-1-yl)ethyl)amino)benzo[Imn][3,8]phenanthroline-1,3,6,8(2H,7H)-tetraone], the “ΔTm Hsp90A” value in assay [1] was determined as 9.1 °C. Moreover, in [2], the “ΔTm Hsp90B” value came out at 8.7 °C. Besides, the IC50 (in general, the concentration needed to halve the response being measured) in [3] amounted to 535 nM; in assay [4], 108 nM; in assay [6], 84 nM; in the assay with MCF7 (breast) cells, 1110 nM; in the assay on A549 (lung cancer) cells it was 198 nM; in [11], 5330 nM. The “ΔTm F21T” value in [5] worked out at 9.8 °C. In assay [7], the “ΔTm Tloop” value turned out to be 0.6 °C. For the same molecule, in assay [8], the “ΔTm Bcl-2” value is 5.9 °C. Moreover, the “ΔTm Kras21” value in assay [9] worked out at 4.8 °C. Moreover, the “ΔTm Kras32” value in [10] came out at 2.2 °C.

For `O=C1c2ccc3c4c(c(NCCN5CCOCC5)cc(c24)C(=O)N1CCCN1CCOCC1)C(=O)N(CCCN1CCOCC1)C3=O` [Compound 4g, 4-((2-morpholinoethyl)amino)-2,7-bis(3-morpholinopropyl)benzo[Imn][3,8]phenanthroline-1,3,6,8(2H,7H)-tetraone], the “ΔTm Hsp90A” value in assay [1] turned out to be 11.0 °C. Further, the “ΔTm Hsp90B” value in [2] turned out to be 9.4 °C. In addition, the IC50 in assay [3] is 10900 nM; in assay [4] it was 206 nM; in assay [6], 220 nM; in the assay with MCF7 (breast) cells it was over 25000 nM; in the assay with A549 (lung cancer) cells, 2180 nM; in [11], 17600 nM. Moreover, in assay [5], the “ΔTm F21T” value worked out at 6.0 °C. Also, the “ΔTm Tloop” value in [7] came out at 1.5 °C. The “ΔTm Bcl-2” value in assay [8] came out at 5.8 °C. Besides, in assay [9], the “ΔTm Kras21” value turned out to be 2.4 °C. In addition, in [10], the “ΔTm Kras32” value came to 1.5 °C.

In the case of `O=C1c2ccc3c4c(c(NCC5CCCO5)cc(c24)C(=O)N1CCCN1CCOCC1)C(=O)N(CCCN1CCOCC1)C3=O` (stereo not drawn) [Compound 4h, 4-((tetrahydrofurylmethyl)amino)-2,7-bis(3-morpholinopropyl) benzo[Imn][3,8]phenanthroline-1,3,6,8(2H,7H)-tetraone], in assay [1], the “ΔTm Hsp90A” value is 3.9 °C. Moreover, the “ΔTm Hsp90B” value in assay [2] was 6.8 °C. Moreover, the IC50 came out at 710 nM in [3]; 139 nM in assay [4]; 808 nM in [6]; 1030 nM in the assay on MCF7 (breast) cells; 146 nM with A549 (lung cancer) cells; 1880 nM in assay [11]. For the same molecule, the “ΔTm F21T” value in assay [5] worked out at 1.4 °C. The “ΔTm Tloop” value in [7] was determined as 0 °C. In addition, the “ΔTm Bcl-2” value in assay [8] turned out to be 4.2 °C. The “ΔTm Kras21” value in assay [9] came out at 3.4 °C. Also, the “ΔTm Kras32” value in assay [10] stood at 1.2 °C.

In the case of `CCN(CC)CCNc1cc2c3c(ccc4c3c1C(=O)N(CCCN1CCOCC1)C4=O)C(=O)N(CCCN1CCOCC1)C2=O` [Compound 4i, 4-((2-(diethylamino)ethyl)amino)-2,7-bis(3-morpholinopropyl)benzo[Imn][3,8]phenanthroline-1,3,6,8(2H,7H)-tetraone], the “ΔTm Hsp90A” value in assay [1] is 2.7 °C. For the same molecule, the “ΔTm Hsp90B” value in [2] was 4.5 °C. Further, the IC50 in [3] was 2670 nM; in assay [4], 1080 nM; in assay [6], 909 nM; in the assay on MCF7 (breast) cells, 3330 nM; in the assay on A549 (lung cancer) cells, 825 nM; in assay [11] it was 5530 nM. Also, the “ΔTm F21T” value in [5] is under 2 °C. In [7], the “ΔTm Tloop” value amounted to 0 °C. Further, in assay [8], the “ΔTm Bcl-2” value was found to be 2.4 °C. Also, the “ΔTm Kras21” value in [9] was 0.7 °C. Also, the “ΔTm Kras32” value in assay [10] worked out at 0.2 °C.

On to `O=C1c2ccc3c4c(c(NCCc5ccc(O)cc5)cc(c24)C(=O)N1CCCN1CCOCC1)C(=O)N(CCCN1CCOCC1)C3=O` [Compound 4j, 4-((4-hydroxyphenethyl)amino)-2,7-bis(3-morpholinopropyl)benzo[Imn][3,8]phenanthroline-1,3,6,8(2H,7H)-tetraone], for which, in [1], the “ΔTm Hsp90A” value was 15.7 °C. In addition, the “ΔTm Hsp90B” value in assay [2] worked out at 13.8 °C. For the same molecule, the half-maximal inhibitory concentration (IC50) in assay [3] came to 451 nM; in assay [4] it was 59 nM; in assay [6], 163 nM; in the assay on MCF7 (breast) cells, 1540 nM; with A549 (lung cancer) cells it was 92 nM; in assay [11], 1650 nM. Further, the “ΔTm F21T” value in [5] was determined as 9 °C. Further, in [7], the “ΔTm Tloop” value was found to be 0.1 °C. Besides, the “ΔTm Bcl-2” value in assay [8] is 10.0 °C. Further, the “ΔTm Kras21” value in [9] amounted to 6.1 °C. In [10], the “ΔTm Kras32” value amounted to 3.0 °C.

Take `CN1CCN(CCCNc2cc3c4c(c(NCCCN5CCN(C)CC5)cc5c4c2C(=O)N(CCCN2CCOCC2)C5=O)C(=O)N(CCCN2CCOCC2)C3=O)CC1` [MM41, 4,9-bis((3-(4-methylpiperazine-1-yl)-propyl)amino)-2,7-bis(3-morpholinopropyl)benzo[Imn][3,8]phenanthroline-1,3,6,8(2H,7H)-tetraone, reference compound]: the “ΔTm Hsp90A” value in [1] is 33.1 °C. In addition, in assay [2], the “ΔTm Hsp90B” value came to 28.6 °C. Further, the IC50 in assay [3] was 63 nM; in [4], 11 nM; in [6], 3 nM; in the assay with MCF7 (breast) cells it was 70 nM; with A549 (lung cancer) cells, 19 nM; in assay [11], 230 nM. Moreover, the “ΔTm F21T” value in assay [5] turned out to be 26.6 °C. Also, the “ΔTm Tloop” value in assay [7] was determined as 4.9 °C. Besides, the “ΔTm Bcl-2” value in assay [8] is 26.4 °C. For the same molecule, in assay [9], the “ΔTm Kras21” value stood at 22.5 °C. Besides, in assay [10], the “ΔTm Kras32” value amounted to 19.8 °C.
